Experimental data reported in article PMC5291322, “Development of Cell‐Permeable, Non‐Helical Constrained Peptides to Target a Key Protein–Protein Interaction in Ovarian Cancer” (Angewandte Chemie (International Ed. in English), 2016).
Non-standard residues stand in square brackets, D forms with d. Residues, ends and D or L forms follow the SMILES beside them. *: point of attachment. 5TAMRA = CN(C)c1ccc2c(c1)Oc1cc(N(C)C)ccc1C21OC(=O)c2cc(C(=O)*)ccc21; Dap(N3) = [N-]=[N+]=NC[C@H](N)C(=O)O; Aha = [N-]=[N+]=NCC[C@H](N)C(=O)O; Ahx = NCCCCCC(=O)O

Key:
mImportin α1 ΔIBB = molecular target: T1, mImportin α1 ΔIBB (Mus musculus, UniProt P52293); experiment: Direct fluorescence polarisation (FP) binding assay; conditions: 60 nM TAMRA-labelled peptide, 15-point 2.0-fold serial dilutions of mImportin α1 ΔIBB, 20 mM HEPES pH 8, 200 mM NaCl, 15 min at room temperature, ex 540/em 590 nm, one-site model, triplicates, read-out: Kd, direct FP assay binding affinity
T1 construct: made in house; host or cells: E. coli BL21 (DE3) CodonPlus-RIL
Experimental: The unconstrained peptides Pep1 and Pep2, as well as four constrained peptides, were synthesized. Their binding affinities for mImportin α1 ΔIBB were evaluated in fluorescence polarization assays (Figure 5 C). […]
Direct Fluorescence Polarisation Assay
Dissociation constants (Kd) for the interaction of TAMRA-5-labelled stapled peptides with mImportin α1 ΔIBB were determined by direct fluorescence polarisation (FP) measurement. TAMRA-5 belongs to the family of rhodamine dyes and has been used extensively for the study of PPIs and DNA-protein interactions by FP assays.[31-32] The mImportin α1 ΔIBB isoform was used since it is well characterised and has been used previously.[33] A one-site binding model was assumed with mImportin α1. mImportin α1 ΔIBB protein was purified in FP buffer (20 mM HEPES (pH 8), 200 mM NaCl) and 1 mM stock solutions of peptides were made up in FP buffer with 3 % v/v DMSO. Accurate mImportin α1 ΔIBB and stapled peptide concentrations were determined by amino acid analysis (PNAC facilities, Department of Biochemistry, University of Cambridge). 15-point dose-response curves were constructed using 2.0-fold serial dilutions of mImportin α1 ΔIBB in a mixture with a final concentration of 60 nM TAMRA-labelled peptide. 20 μL reaction volumes were pipetted into […] black polystyrene assay plates (Corning 384 Well Low Flange Black Flat

JHOC9 cells = experiment: Cell permeability assay, live-cell confocal fluorescence microscopy; type: cell-based; conditions: 10 μM TAMRA-labelled peptide in medium, 2 h incubation, Hoechst 33342 in the final 30 min, PBS wash, TAMRA fluorescence read-out, qualitative
Description: Live‐cell fluorescence microscopy studies were undertaken to assess the cell permeability of the synthesized TAMRA‐labelled linear and constrained peptides (Figure 7).
Figure 7 Cell‐permeability studies for the linear and constrained peptides using JHOC9 cells. Images were taken on a Leica tandem confocal microscope using a 40 X objective.
HEK293T cells were cultivated in Dulbecco’s Modified Eagle medium (DMEM) (1X) supplemented with 5 % foetal bovine serum (FBS) (Invitrogen) and 0.5 % penicillin/streptomycin (P/S). CCC cell lines PEO1, JHOC5, JHOC7, JHOC9, OVISE, SKOV3 and Normal Ovarian Surface Epithelial (IOSE) cells were grown in RPMI 1640 medium (1X) supplemented with 10 % FBS and 1 % P/S. All cell lines were maintained at 37 °C in 5 % CO2 and were mycoplasma tested on a regular basis (Biorepository Core, CRUK CI, Cambridge). Cell counts were conducted using the Vi-CELL Cell Viability Analyzer. […]
Cell permeability assay and confocal microscopy
Cells were grown in chambered coverslips (μ–Slide 8 Well ibiTreat, Ibidi) for live-cell imaging. When the desired degree of confluency was reached, the medium was replaced with 10 μM solutions of constrained peptides in medium. For live-cell imaging, cells were incubated with the constrained peptide solutions for 2 h and during the final 30 min, Hoechst stain 33342 (1 μM, Thermo Fisher Scientific) was added. Cells were washed with PBS before live-cell imaging. Fresh medium was added and cells were imaged live using a Leica Tandem confocal microscope. Images were generated as a maximum intensity projection of five z-stacked […]
Aldrich, Mission RNAi, TRC2-pLKO-puro Vector) were used. All plasmids were confirmed by restriction digest and agarose gel electrophoresis.
For each transfection sample 16 μg transfer vector, 10.4 μg pMDL/pRRE, 4 μg pRSV-Rev and 5.6 μg pVSV-G were used. Lentiviruses were produced in the HEK293T packaging cell line. The day before transfection, 16 x 10^6 HEK293T cells were plated in […] (Corning) using Opti-MEM reduced-serum medium (30 mL, 1 X, Invitrogen) so that cells were 90–95 % confluent on the day of transfection. After 24 h the medium was removed and replaced with DMEM growth medium (16 mL, Invitrogen) containing serum. For each transfection sample DNA-Lipofectamine complexes were prepared as follows: In a sterile 15 mL tube, 16 μg transfer vector, 10.4 μg pMDL/pRRE, 4 μg pRSV-REV and 5.6 μg pVSV-G were diluted in Opti-MEM medium (5 mL). In a separate sterile 15 mL tube, Lipofectamine 2000 (115 μL, Life Technologies) was diluted in Opti-MEM medium (5 mL). Both solutions were incubated for 5 min at room temperature and then combined.
Incubation for 20 min at room temperature allowed DNA-Lipofectamine complexes to form, which were then added dropwise to each plate of HEK293T cells. […]

SMILES: CSCC[C@@H]1NC(=O)[C@H](CCCCN)NC(=O)[C@H](CCCCN)NC(=O)[C@@H](NC(=O)[C@@H](NC(=O)CCCCCNC(=O)c2ccc3c(c2)C(=O)OC32c3ccc(N(C)C)cc3Oc3cc(N(C)C)ccc32)[C@@H](C)O)Cn2cc(nn2)CNC(=O)NCc2cn(nn2)C[C@@H](C(=O)N[C@@H](CCCNC(=N)N)C(N)=O)NC(=O)[C@H](CCCNC(=N)N)NC(=O)[C@H](CCCNC(=N)N)NC1=O [Pep1A]
- Kd (mImportin α1 ΔIBB): 95.9 ± 27.3 µM

SMILES: CSCC[C@@H]1NC(=O)[C@H](CCCCN)NC(=O)[C@H](CCCCN)NC(=O)[C@@H](NC(=O)[C@@H](NC(=O)CCCCCNC(=O)c2ccc3c(c2)C(=O)OC32c3ccc(N(C)C)cc3Oc3cc(N(C)C)ccc32)[C@@H](C)O)Cn2cc(nn2)CCNC(=O)NCCc2cn(nn2)C[C@@H](C(=O)N[C@@H](CCCNC(=N)N)C(N)=O)NC(=O)[C@H](CCCNC(=N)N)NC(=O)[C@H](CCCNC(=N)N)NC1=O [Pep1B]
- Kd (mImportin α1 ΔIBB): 48.2 ± 4.88 µM
- cell permeability (JHOC9 cells): retained their cell permeability

SMILES: CSCC[C@@H]1NC(=O)[C@H](CCCCN)NC(=O)[C@H](CCCCN)NC(=O)[C@@H](NC(=O)[C@@H](NC(=O)CCCCCNC(=O)c2ccc3c(c2)C(=O)OC32c3ccc(N(C)C)cc3Oc3cc(N(C)C)ccc32)[C@@H](C)O)Cn2cc(nn2)CCCNC(=O)NCCCc2cn(nn2)C[C@@H](C(=O)N[C@@H](CCCNC(=N)N)C(N)=O)NC(=O)[C@H](CCCNC(=N)N)NC(=O)[C@H](CCCNC(=N)N)NC1=O [Pep1C]
- Kd (mImportin α1 ΔIBB): 55.9 ± 2.43 µM

SMILES: CSCC[C@H](NC(=O)[C@H](CCCCN)NC(=O)[C@H](CCCCN)NC(=O)[C@H](CN=[N+]=[N-])NC(=O)[C@@H](NC(=O)CCCCCNC(=O)c1ccc2c(c1)C(=O)OC21c2ccc(N(C)C)cc2Oc2cc(N(C)C)ccc21)[C@@H](C)O)C(=O)N[C@@H](CCCNC(=N)N)C(=O)N[C@@H](CCCNC(=N)N)C(=O)N[C@@H](CN=[N+]=[N-])C(=O)N[C@@H](CCCNC(=N)N)C(N)=O [Pep1] ({5TAMRA-Ahx}-T[Dap(N3)]KKMRR[Dap(N3)]R-NH2)
- Kd (mImportin α1 ΔIBB): 2.06 ± 0.07 µM
- cell permeability (JHOC9 cells): good cell permeability

SMILES: CSCC[C@@H]1NC(=O)[C@H](CCCCN)NC(=O)[C@H](CCCCN)NC(=O)[C@@H](NC(=O)[C@@H](NC(=O)CCCCCNC(=O)c2ccc3c(c2)C(=O)OC32c3ccc(N(C)C)cc3Oc3cc(N(C)C)ccc32)[C@@H](C)O)CCn2cc(nn2)CNC(=O)NCc2cn(nn2)CC[C@@H](C(=O)N[C@@H](CCCNC(=N)N)C(N)=O)NC(=O)[C@H](CCCNC(=N)N)NC(=O)[C@H](CCCNC(=N)N)NC1=O [Pep2A]
- Kd (mImportin α1 ΔIBB): 4.54 µM
- cell permeability (JHOC9 cells): retained their cell permeability

SMILES: CSCC[C@H](NC(=O)[C@H](CCCCN)NC(=O)[C@H](CCCCN)NC(=O)[C@H](CCN=[N+]=[N-])NC(=O)[C@@H](NC(=O)CCCCCNC(=O)c1ccc2c(c1)C(=O)OC21c2ccc(N(C)C)cc2Oc2cc(N(C)C)ccc21)[C@@H](C)O)C(=O)N[C@@H](CCCNC(=N)N)C(=O)N[C@@H](CCCNC(=N)N)C(=O)N[C@@H](CCN=[N+]=[N-])C(=O)N[C@@H](CCCNC(=N)N)C(N)=O [Pep2] ({5TAMRA-Ahx}-T[Aha]KKMRR[Aha]R-NH2)
- Kd (mImportin α1 ΔIBB): 6.84 ± 0.26 µM
- cell permeability (JHOC9 cells): good cell permeability

SMILES: CN(C)c1ccc2c(-c3ccc(C(=O)O)cc3C(=O)[O-])c3ccc(N(C)C)cc3[o+]c2c1 [TAMRA-5, 5-CARBOXYTETRAMETHYLRHODAMINE, reference compound]
- Kd (mImportin α1 ΔIBB): ~122 µM
